Read-outs that look alike come from different tables or passages of the source.
Columns and labels:
[1] = oral, cited from earlier work
[2] = Plasma paclitaxel after single oral dose with or without P-gp inhibitor cyclosporine A; type: in vivo, ICR mice
Protocol: ICR mice (male, 25-30 g) were fasted for 12 hr before dosing. Mice were anesthetized with diethyl ether and administered with a single oral dose of paclitaxel or paclitaxel-chitosan conjugates with or without P-gp inhibitor (cyclosporine A, Sigma, 15 mg/kg) through an oral gavage that was carefully passed down the esophagus into the stomach. The drug solutions were prepared in 10% DMSO solution. The total volume of the administered drug solution was 0.2 ml. Blood (450 μl) was collected from a capillary in the retroorbital plexus and directly mixed with 50 Al of sodium citrate (3.8% solution); the sample was then immediately centrifuged at 3000 rpm at 4° C. for 20 min. The concentrations of paclitaxel in plasma were measured using HPLC after extraction.

[3] = system: B16F10 melanoma cells; assay: Oral administration in B16F10 melanoma allograft (tumor size, survival); type: in vivo, C57BL6 male mice; settings: oral 25 mg/kg, 5 days on, 2 days off, about 30 days; FIG. 7
[4] = system: Diabetes-induced rats; assay: Bioavailability calculated from degree of blood glucose control (AUC) after oral administration; type: in vivo, rat; settings: insulin 1.77 mg/kg, protease inhibitor not added
Protocol: (§1) An insulin-chitosan conjugate (a conjugate using chitosan of MW 3000, 6000 or 9000 Da) was dissolved in a citrate buffer solution and then diluted with physiological saline to prepare an insulin-chitosan conjugate solution at an insulin concentration of 100 U/mL. Diabetes-induced rats were fasted for 6 hours, and blood was collected from the tail veins of animals and the blood glucose level was determined. The thus-obtained value was used as an initial value prior to administration of the drug. The experimental animals were given oral administration of the above-prepared insulin-chitosan conjugate solution at a dose of 50 IU/kg using a gastric sonde (50 IU is equivalent to 1.77 mg of insulin). As a control, animals were given oral administration of 50 IU/kg insulin and chitosan of MW 9000 Da in the same manner as above. On time points of 1, 2, 3, and 4 hours after administration of the drug, blood was collected from the tail veins of animals and the blood glucose level was determined. The blood glucose level at each time point was calculated by taking the initial value prior to administration of the drug to be 100%.
Then, the bioavailability of conjugates were calculated from the degree of blood glucose control (area under curve, AUC) obtained in FIG. 2 after oral administration of each insulin-chitosan conjugate. […] In addition, as a control, known bioavailability of insulin, a protease-chitosan conjugate and a thiolated chitosan-insulin tablet preparation containing glutathione (a reducing agent) (Krauland A H, et al., J. Control Release, 24; 95(3):547-555 (2004)) was compared.

[5] = system: Diabetes-induced rats; assay: In vivo oral administration of insulin-chitosan conjugate (blood glucose level); design: species or system rat; settings: FIG. 2
Protocol: as §1

In the case of `CC(=O)O[C@H]1C(=O)[C@@]2(C)[C@H]([C@H](OC(=O)c3ccccc3)[C@]3(O)C[C@H](OC(=O)[C@H](O)[C@@H](NC(=O)c4ccccc4)c4ccccc4)C(C)=C1C3(C)C)[C@]1(OC(C)=O)CO[C@@H]1C[C@@H]2O` [paclitaxel], the bioavailability of paclitaxel ([1]; PTX only) is listed as 4-10%, the bioavailability of paclitaxel ([1]; combined with a P-gp inhibitor such as cyclosporin A or Valspodar) is listed as 50-60% and the “increase of maximum plasma concentration (Cmax) when coadministrated with cyclosporine A” value ([2]; cyclosporine A 15 mg/kg, FIG. 6a) is listed as 9.3 fold. For the same molecule, the Cmax ([2]; male, ICR, mouse, plasma, without cyclosporine A, conjugate chitosan MW 6000, read-out: maximum plasma concentration (Cmax) of paclitaxel) was 90 ± 20 ng/mL and the “tumor size compared to the control group” value [3] was “no significant difference in the tumor size”.
In the case of “Insulin-3K LMWC: insulin-chitosan conjugate using low molecular weight chitosan of MW 3000 Da”, the “Bioavailability (%) (SC injection: 100%)” value [4] is reported as 1.89 ± 0.32%.
For “Insulin-6K LMWC: insulin-6 KDa low molecular weight chitosan conjugate”, the “Bioavailability (%) (IV injection: 100%)” value [4] was 0.77 ± 0.16% and the “Bioavailability (%) (SC injection: 100%)” value [4] was 2.66 ± 0.38%.
For “Insulin-9K LMWC: insulin-chitosan conjugate using low molecular weight chitosan of MW 9000 Da”, the “Bioavailability (%) (IV injection: 100%)” value [4] was 1.0 ± 0.13% and the “Bioavailability (%) (SC injection: 100%)” value [4] was 3.69 ± 0.29%.
For insulin, the “lowering of the blood glucose levels (in words)” value ([5]; insulin 50 IU/kg, chitosan of MW 9000 Da) was “no lowering of the blood glucose levels”.
With “insulin-chitosan conjugate: insulin (B29 lysine) bound via -CO-(CH2)2-S-S-(CH2)2-CO- linker to chitosan of MW 3000, 6000 or 9000” the “decrease in the blood glucose level compared to the initial blood glucose level” value ([5]; 50 IU insulin/kg, 2 hours later) was > 40%.
